Literature values as cited in patent publication US7803400B2, “Artificial low-density lipoprotein carriers for transport of substances across the blood-brain barrier” (Blanchette Rockefeller Neurosciences Institute, priority 2002, dated 2010).

Experiments:
PKCC = target: T1, PKCC (Homo sapiens, UniProt Q02156)
T1 sequence (Q02156 1-737): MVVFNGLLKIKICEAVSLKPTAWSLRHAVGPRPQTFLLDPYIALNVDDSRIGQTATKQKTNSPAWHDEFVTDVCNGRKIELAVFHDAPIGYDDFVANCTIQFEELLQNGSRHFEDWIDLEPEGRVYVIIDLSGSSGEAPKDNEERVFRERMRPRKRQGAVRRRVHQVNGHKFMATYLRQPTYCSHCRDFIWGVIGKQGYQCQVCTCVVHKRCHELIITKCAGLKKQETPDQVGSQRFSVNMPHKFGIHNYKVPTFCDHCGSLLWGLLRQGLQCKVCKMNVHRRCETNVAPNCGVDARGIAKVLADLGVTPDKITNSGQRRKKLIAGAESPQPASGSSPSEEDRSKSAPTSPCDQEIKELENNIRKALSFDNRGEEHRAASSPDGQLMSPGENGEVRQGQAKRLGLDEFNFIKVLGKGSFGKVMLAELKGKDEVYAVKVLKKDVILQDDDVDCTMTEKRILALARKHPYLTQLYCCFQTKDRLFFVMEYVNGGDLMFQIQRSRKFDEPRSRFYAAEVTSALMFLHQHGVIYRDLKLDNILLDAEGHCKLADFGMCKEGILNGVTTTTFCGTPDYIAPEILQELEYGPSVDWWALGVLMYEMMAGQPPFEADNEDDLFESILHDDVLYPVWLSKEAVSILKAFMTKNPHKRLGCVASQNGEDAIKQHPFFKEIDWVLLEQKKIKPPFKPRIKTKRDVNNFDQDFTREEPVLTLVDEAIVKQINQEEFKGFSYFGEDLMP

[1] = tested on: murine leukemias and solid tumors
[2] = tested on: cyclin dependent kinase 2 (Cdk2); conditions: at 5 ng/ml

For CCCCCCCC(=O)O[C@H]1/C(=C/C(=O)OC)C[C@H]2C[C@H](CO)OC(=O)C[C@H](O)CC3CCC[C@H](C[C@@H]4CCO[C@H](/C=C/C(C)(C)[C@]1(O)O2)O4)O3 [Analog 1], the “potency relative to bryostatin-1” value (PKC) is listed as “about 100 times” and the Ki (PKC; read-out: PKC Affin) is listed as 0.25 nM.
In the case of CCCCCC1CC1CC1CC1CCCCCCCC(=O)O (stereo not drawn) [DCP-LA, 2-[(2-pentylcyclopropyl)methyl]cyclopropaneoctanoic acid], the “concentration of maximal effect on PKC activation” value (PKCC) is given as 100 nM.
In the case of Gnidimacrin, the “concentrations of potent antitumor activity” value [1] is given as 0.1 to 1 nM, the “concentration at which it acts as PKC activator” value (PKC in K562 cells) is given as “≈ 3 nM” and the “inhibition of Cdk2” value [2] is given as 100%.
